Reference: PubChem BioAssay (NCI)
Where “and” joins values, the source holds several entries; their conditions need not be identical. Equal values may be shown once.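 Dose response: 5 concentrations. Exposure: 48 h. Format: 96-well plates. Endpoint: linear interpolation; highest concentration if not reached. Here, GI50 denotes the concentration required for 50% inhibition of growth. Definition used: TGI = concentration required for complete inhibition of growth.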

Tests used:
Experiment in all cases: NCI anticancer screen, dose series, 48 h
CAKI-1 renal = system: CAKI-1 renal
HL-60(TB) leukemia = system: HL-60(TB) leukemia
M14 melanoma = system: M14 melanoma
NCI-H460 lung = system: NCI-H460 lung
NCI-H522 lung = system: NCI-H522 lung
NCI/ADR-RES ovarian = system: NCI/ADR-RES ovarian
SF-539 CNS = system: SF-539 CNS
TK-10 renal = system: TK-10 renal
U251 CNS = system: U251 CNS
UACC-257 melanoma = system: UACC-257 melanoma

| SMILES | GI50 (CAKI-1 renal) | TGI (CAKI-1 renal) | GI50 (HL-60(TB) leukemia) | TGI (HL-60(TB) leukemia) | GI50 (M14 melanoma) | TGI (M14 melanoma) | GI50 (NCI-H460 lung) | TGI (NCI-H460 lung) | GI50 (NCI-H522 lung) | TGI (NCI-H522 lung) | GI50 (NCI/ADR-RES ovarian) | TGI (NCI/ADR-RES ovarian) | GI50 (SF-539 CNS) | TGI (SF-539 CNS) | GI50 (TK-10 renal) | TGI (TK-10 renal) | GI50 (U251 CNS) | TGI (U251 CNS) | GI50 (UACC-257 melanoma) | TGI (UACC-257 melanoma) |
| --- | --- | --- | --- | --- | --- | --- | --- | --- | --- | --- | --- | --- | --- | --- | --- | --- | --- | --- | --- | --- |
| O=C(CNc1ccc(Cl)cc1)Nc1ccc(-c2nc3ccccc3s2)cc1 | 6.8 µM | 20 µM | 2.23 µM | 6.05 µM | 2.1 µM | 5.15 µM | 3.62 µM | 12.7 µM | 1.53 µM | 3.67 µM | 3.42 µM | 11.4 µM | 4.93 µM | 9.79 µM | 5.98 µM | 13.7 µM | 5.24 µM | 10.8 µM | 7.7 µM | 21.6 µM |
| CCN(CC)CCC(CNc1ccnc2cc(Cl)ccc12)c1ccc(OC)cc1 (stereo not given) | 5.85 µM and 2.54 µM | 23.2 µM and 15.9 µM | 6.59 µM and 3.76 µM | 25.3 µM and 20.4 µM | 1.86 µM and 1.88 µM | 3.61 µM and 3.73 µM | 11.1 µM and 4.91 µM | 25.6 µM and 24.7 µM | 3.29 µM and 2.16 µM | 13.1 µM and 8.47 µM | 8.66 µM and 7.57 µM | 47.5 µM and 34.3 µM | 1.56 µM and 1.7 µM | 3.17 µM and 3.6 µM | 3.97 µM and 1.99 µM | 14.2 µM and 5.15 µM | 4.91 µM and 3.52 µM | 17.2 µM and 11.5 µM | 2.19 µM and 1.72 µM | 3.96 µM and 3.48 µM |
| N#Cc1c(NN)n(C2OC(CO)C(O)C2O)c2ncnc(N)c12 (stereo not given) | 0.0619 µM | 0.639 µM | 0.022 µM | 0.109 µM | 0.0532 µM | 0.303 µM | 0.032 µM | 0.412 µM | 0.198 µM | 0.469 µM | 0.283 µM | 4.17 µM | 0.337 µM | 1.48 µM | 0.247 µM | 7.93 µM | 0.0919 µM | > 100 µM | 0.267 µM | 1.66 µM |
| CCCCCCNC(=O)c1cc(NCc2cc(O)ccc2O)ccc1O | 4.35 µM | 18.5 µM | 0.578 µM | 3.41 µM | 11.1 µM | 25.2 µM | 21.5 µM | 82.3 µM | 0.265 µM | 0.752 µM | 5.44 µM | 78.1 µM | 1.91 µM | 6.06 µM | 10.7 µM | 23.1 µM | 12.1 µM | 28.5 µM | 14.1 µM | 30.4 µM |
| O=C1/C(=C/c2ccc(Br)cc2)COc2ccc(O)c(O)c21 | 0.944 µM | 2.25 µM | 0.442 µM | 3.28 µM | 1.41 µM | 3.47 µM | 1.68 µM | 4.06 µM | 0.158 µM | 0.348 µM | 0.665 µM | > 25.8 µM | 0.436 µM | 1.19 µM | 1.7 µM | 3.2 µM | 0.588 µM | 2.04 µM | 1.71 µM | 6.78 µM |
| CCOC(=O)CCCn1c(SC)nc2[nH]cc(-c3ccccc3)c2c1=O | 15.8 µM | 45.1 µM | 1.05 µM | 15 µM | 15.4 µM | 31.6 µM | 33.6 µM | > 100 µM | 15 µM | 37.8 µM | 18.9 µM | 53.1 µM | 18.4 µM | 46.1 µM | 46.1 µM | > 100 µM | 16.8 µM | 58.5 µM | 22.7 µM | 44.3 µM |
| CCn1c(-c2nonc2N)nc2c(C#CC(C)(C)O)nc(OC[C@H](N)c3ccccc3)cc21 | 3.94 µM | 8.93 µM | 5.23 µM | 10.1 µM | 3.94 µM | 7.47 µM | 2.76 µM | 6.31 µM | 4.47 µM | 8.63 µM | 5.31 µM | 13.9 µM | 2.35 µM | 6.07 µM | 2.69 µM | 6.37 µM | 3.21 µM | 6.67 µM | 5.18 µM | 9.43 µM |
| C=CCCCCC/C=C\[C@H](O)C#CC#C/C=C/CO | 32.6 µM | 86.6 µM | 3.64 µM | 24.1 µM | 86.2 µM | > 100 µM | > 100 µM | > 100 µM | 19.3 µM | 45.4 µM | 23.5 µM | 57.3 µM | 58.2 µM | > 100 µM | 28.8 µM | > 100 µM | 24.5 µM | 77.3 µM | 78.9 µM | > 100 µM |
| COc1ccc(-n2cc(-c3cc(OC)c(OC)c(OC)c3)c(C(=O)C(F)(F)F)c2C)cc1 | 73.8 µM | > 100 µM | 37.3 µM | > 100 µM | > 100 µM | > 100 µM | 29.4 µM | > 100 µM | 20 µM | > 100 µM | 25.8 µM | > 100 µM | > 100 µM | > 100 µM | 35.7 µM | > 100 µM | 63.4 µM | > 100 µM | 15.7 µM | > 100 µM |
| O/N=C/C1C(OCc2ccccc2)C(OCc2ccccc2)C(OCc2ccccc2)CN1Cc1ccccc1 (stereo not given) |  | > 100 µM |  | 80.4 µM | 11.7 µM and 5.68 µM | 40.3 µM and > 100 µM | 8.94 µM and 3.24 µM | 32.4 µM and 29.9 µM |  | > 100 µM | 7.12 µM and 22.3 µM | 72.5 µM and > 100 µM |  | > 100 µM | 22 µM and 3.08 µM | 58.8 µM and > 100 µM |  | 37.5 µM and > 100 µM | 23.3 µM and 2.45 µM | 72.5 µM and 15.7 µM |
| CCCCCCCCCCCCCC1=NC(C)(C)CN1C(C)C | 1.36 µM | 2.84 µM | 1.09 µM | 2.72 µM | 1.72 µM | 3.09 µM | 1.89 µM | 3.3 µM | 1.58 µM | 2.97 µM | 1.67 µM | 3.51 µM | 1.65 µM | 3.01 µM | 1.58 µM | 3 µM | 1.64 µM | 3 µM | 1.92 µM | 3.39 µM |
| COc1ccc2c(c1)CCCC(Br)C2=O (stereo not given) |  | 9.45 µM |  | 16.9 µM |  | 16.5 µM |  | 10.5 µM |  | 0.837 µM |  | > 29.9 µM |  | > 19.9 µM |  | 16.8 µM |  | 29.6 µM |  | 32.1 µM |
| C=C(CNCc1ccccc1)c1ccc(C(=O)Nc2ccccc2N)cc1 | 5.35 µM | 32.5 µM | 1.2 µM | > 100 µM | 29.8 µM | > 100 µM | > 100 µM | > 100 µM | 1.78 µM | 6.01 µM | 3.21 µM | 18.8 µM | 7.63 µM | 55.2 µM | 4.68 µM | 21.7 µM | 9.86 µM | > 100 µM | 1.54 µM | 15.5 µM |
| CCCCCCCCCCCCOC1C(C(COC2OC(C3COC(C)(C)O3)C3OC(C)(C)OC23)NC(=O)Nc2ccc(C(=O)O)cc2)OC2OC(C)(C)OC21 (stereo not given) | 5.45 µM | 17.6 µM | 2.12 µM | 5.45 µM | 2.45 µM | 6.71 µM | 2.45 µM | 5.89 µM | 2.56 µM | 6.93 µM | 10.9 µM | 24.8 µM | 1.72 µM | 3.39 µM | 4.13 µM | 14.4 µM | 3.3 µM | 11.1 µM | 2.38 µM | 5.79 µM |
